Measured values as given in publication PMC12955800 (ACS chemical neuroscience, 2021).
“Also recorded” adds a separate entry of the source.

Assays:
[1] = system: A. suum ovijector tissue; assay: Ascaris suum ovijector bioassay
[2] = system: C. elegans (acs-20 cuticle defective mutant); assay: C. elegans body length assay; type: in vivo, Caenorhabditis elegans; conditions: 100 μM synthetic As-FLP-18A, 96 h, 20 °C, vs S-medium, n > 9 nematodes
[3] = system: C. elegans (acs-20 cuticle defective mutant); assay: wMicroTracker motility assay; type: in vivo, Caenorhabditis elegans; conditions: 10 μM synthetic As-FLP-18A, M9, 12 h, n > 4 wells
[4] = synthetic As-FLP-18A, 10 μM, HBSS, 10 min

Row | Substance | effect on ovijector muscle ([1]; synthetic As-FLP-18A, 1 nM to 10 μM, 10 min) | effect on ovijector muscle ([1]; synthetic As-FLP-18A, 10 nM to 1 μM) | response type (RT) on ovijector ([1]; synthetic As-FLP-18A, 1 μM to 10 nM, 10 min) | effect on ovijector muscle ([1]; synthetic As-FLP-18A, 1 μM, RT-2-like) | preparations with RT-1 response [1, 4] | preparations with RT-2 response [1, 4] | C. elegans growth (body length) [2] | C. elegans motility (locomotory activity) [3] | effect on ovijector contractility ([1]; truncated synthetic peptide GFGDEMSMPGVLR, 10 μM)
1 | GFGDEMSMPGVLRF-NH2 [As-FLP-18A] | concentration dependent myoexcitatory effects | consistent excitatory effects | RT-2 responses only | transient muscle contraction followed by muscle paralysis | 64.2 % of preparations | 35.7 % of preparations | this effect was mirrored; also recorded: significantly reduced | significant inhibition of locomotion; also recorded: significantly reduced | –
2 | GFGDEMSMPGVLR [truncated As-FLP-18A] | – | – | – | – | – | – | – | – | lacks biological activity in A. suum muscle physiology assays
